This is an account of results in patent US6573278B2, “Aryl sulfonamides and analogues thereof and their use in the treatment of neurodegenerative diseases” (Bayer Aktiengesellschaft, priority 1997, dated 2003).

For series [1], the system named is subdural haematoma in the rat (SDH). Put plainly: Subdural haematoma in the rat (SDH). The class given is in vivo. Here is the method:
Subdural Haematoma in the Rat (SDH)
Under anaesthesia, the animal's own blood is injected subdurally on one side An infarct is formed under the haematoma. Substance administration is carried out according to different time schemes and via different administration routes (i.v., i.p.) The determination of the infarct size is carried out as described in the model of permanent focal ischaemia in the rat (MCA-O)
Activity in the model “subdural haematoma in the rat (SDH)”

For series [2], the target named is T1, CB1 receptor (rat cortex membranes) (Rattus norvegicus, UniProt P20272).
T1 construct: from tissue; host or cells: rat cortex membranes
T1 sequence (P20272 whole entry): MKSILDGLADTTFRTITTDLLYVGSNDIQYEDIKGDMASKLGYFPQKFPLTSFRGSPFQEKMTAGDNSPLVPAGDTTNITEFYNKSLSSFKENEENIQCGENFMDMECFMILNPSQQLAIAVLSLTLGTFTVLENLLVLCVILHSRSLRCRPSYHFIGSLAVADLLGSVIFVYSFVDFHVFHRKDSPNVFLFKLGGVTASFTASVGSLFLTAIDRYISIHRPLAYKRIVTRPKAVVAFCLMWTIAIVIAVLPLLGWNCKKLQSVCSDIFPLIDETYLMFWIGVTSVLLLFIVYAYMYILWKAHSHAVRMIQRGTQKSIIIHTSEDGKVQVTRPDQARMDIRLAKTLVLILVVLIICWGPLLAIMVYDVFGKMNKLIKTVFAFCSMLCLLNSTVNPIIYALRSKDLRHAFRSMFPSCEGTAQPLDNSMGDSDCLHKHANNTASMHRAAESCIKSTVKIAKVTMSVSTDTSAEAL
Put plainly: Binding studies on rat cortex membranes. The note with it: read-out: Ki, affinity for the CB1 receptor (rat cortex membranes). The method, then: Binding Studies on Rat Cortex Membranes
Membrane protein is prepared from different tissues or from cells by standard methods. Buffer, labelled ligand, DMSO or test substance are pipetted together, then 100 μg of protein are added, and the mixture is well mixed and incubated in a water bath at 30° C. for 60 min. After expiry of the incubation time, the reaction is stopped by addition of ice-cold incubation buffer to each tube. After filtering off, washing is carried out with ¾ ml of incubation buffer. The filters are transferred to minivials and the radioactivity is determined in a scintillation counter. Affinity for the CB1 receptor (rat cortex membranes)

Series [3] is described as follows: Rat hypothermia, agonism testing. To be noted: i.v. The class given is in vivo. Here is the method: Five minutes after determination of the basal body temperature via an oesophageal temperature probe, the test substance is administered (i.v.). A control group receives only the solvent for the test substances, likewise i.v. The body temperature is measured 7.5, 15, 30 and 60 minutes after i.v. administration. The group size per dose is 5-7 animals (rats).
Rat hypothermia—Agonism testing

The target of another series is T2, rat CB1 receptor (Rattus norvegicus, UniProt P20272).
T2 construct: contains an open reading frame of 1419 base pairs which corresponds to a protein of 473 amino acids; expressed in transfected cells; host or cells: CHOluc9 cells, stably transfected with plasmid CMV-RH (pRc/CMV)
T2 sequence (P20272 whole entry): as above
Put plainly: CB1 luciferase reporter gene test (CHOluc9 cells, forskolin-stimulated). The class given is cell-based. The note with it: CHOluc9 cells with rat CB1, forskolin. The method, then: CB1—Luciferase Reporter Gene Test
1. Cloning of the Rat Cannabinoid Receptor CB1
Total RNA from rat brain (the tissue was taken from freshly killed animals and shock-frozen in liquid nitrogen) was isolated by acidic guanidinium thiocyanate/phenol/chloroform extraction (J. Biol. Chem. 1979, 18, 5294) and converted into cDNA by means of reverse transcriptase and random primers (in each case from Invitrogen). The polymerase chain reaction (PCR, conditions: 4 min 94° C., 1×; 1 min 94° C.; 2 min 53° C.; 1 min 72° C., 50 cycles; 1 min 94° C., 2 min 53° C., 4 min 72° C., 1×) was carried out in a Perkin Elmer thermocycler using the enzyme Taq polymerase (Perkin Elmer); the oligonucleotide primers employed (bases 99 to 122: 5′→3′, “down”; 1556-1575: 3′←5′, “up”) were derived from the published sequence of the rat cannabinoid receptor (Nature 1990, 346, 561) and were synthesized on a DNA synthesizer, model 1380 from Applied Biosystems. One part of the PCR reaction was separated in a 1% strength agarose gel in 1× TBE buffer and then stained with ethidium bromide, only one band having the expected length being visible (approximately 1.5 kb). This PCR product was subcloned into the TA cloning vector (Invitrogen) and the nucleotide sequence of the inserts was determined by the dideoxynucleotide chain termination reaction using T7DNA polymerase (Sequenase, USA/Amersham). The insert has a length of 1477 base pairs and contains an open reading frame of 1419 base pairs which corresponds to a protein of 473 amino acids. The number of base pairs, the position of the open reading frame and the number of amino acids agree with the published sequence. Computer analyses were carried out with the aid of the GCG software suite (Genetic Computer Group). The cDNA insert was subcloned into the expression vector pRc/CMV after partial digestion with HindIII and NotI (Biolabs). This construct (plasmid CMV-RH) was employed for transfection experiments.
2. Stable Transfection of the CHOluc9 Reporter Cells
CHOluc9 cells were cultured in 50% Dulbecco's modified Eagle medium/50% F-12 (DMEM/F12) which contained 10% foetal calf serum (FCS). Transfections were prepared in 6-well plates. 7.5 μg of Qiagen-purified CMV-RH plasmid DNA were added per […] with the DOTAP transfection system, corresponding to the experimental protocol of the manufacturer (Boehringer Mannheim). Transfected cells were selected using 1 mg/ml G418 and individual clones were obtained by limiting dilution in 96-well plates. Cell lines which express the cannabinoid receptor were identified for the inhibition of reporter gene expression after incubation with the cannabinoid receptor agonist, WIN-55,212-2, in the presence of forskolin. Several stable transfected and subcloned cell lines were further characterized by means of RT-PCR, as described under 1.
3. Test Optimization and Pharmacological Characterization of the CHOCB1 Reporter Cell Line
With the aim of high sensitivity and reproducibility, low variance and high suitability for carrying out on the robotic system, the luciferase test was optimized by variation of several test parameters, such as, for example, cell density, duration of the growth phase and the test incubation, forskolin concentration, medium composition. […]
A general note: In a reporter assay the amount or activity of a reporter protein is the signal.

The subject of series [4] is permanent focal cerebral ischaemia (MCA-O). Put plainly: Permanent focal cerebral ischaemia in the rat (MCA-O). The class given is in vivo. To be noted: infarct size after 7 days. The method, then:
Permanent Focal Cerebral Ischaemia in the Rat (MCA-O)
Under isoflurane anaesthesia, the median cerebral artery is exposed on one side and the latter and its side branches are irreversibly sealed by means of electrocoagulation. As a result of the intervention a cerebral infarct is formed. During the operation, the body temperature of the animal is kept at 37° C. After wound closure and wearing off of the anaesthesia, the animals are again released into their cage. The administration of substance is carried out according to different time schemes and via different administration routes (i.v., i.p.) after occlusion. The infarct size is determined after 7 days. To do this, the brain is removed, worked up histologically and the infarct volume is determined with the aid of a computer-assisted analysis system.
Activity in the model of permanent focal cerebral ischaemia (MCA-O)

[5] abbreviates: 0.1 mg/kg, i.v. bolus injections directly, 2 and 4 hours after occlusion.
[6] abbreviates: 0.03 mg/kg/h, i.v. continuous infusion directly up to 4 hours after occlusion.

Structures can show the parent of a compound that is named as a salt. Marks after values point to notes of the source that are not given here.

The melting point is the temperature of the solid-liquid transition. The Ki is the equilibrium dissociation constant of an inhibitor or competing ligand from its target. In general, IC50 refers to the concentration that gives 50% inhibition. In the case of `O=S(=O)(Cc1ccccc1)Nc1cccc(Oc2cccc3ccccc23)c1` [Example 51], the melting point was found to be 139.5 °C. For the same compound, in series [1] (0.01 mg/kg/h, i.v. continuous infusion directly up to 4 hours post-trauma), the “% Reduction in the infarct volume” value is recorded as 54%. The Ki in series [2] turned out to be 41 nM. Also, in series [3], the “ED−1° C., effective dose for 1° C. body temperature reduction” value is on record as 0.1 ^b) mg/kg. Also, the IC50 on rat CB1 receptor was found to be 0.9 nM. The “% Reduction in the infarct volume” value in series [4] (setting [5]) is 24%.

In turn, `CCC(=O)Nc1ccc(Oc2ccc(NS(=O)(=O)Cc3ccccc3)cc2)c2ccccc12` yielded a melting point of 180 °C.

Compound `CCCOS(=O)(=O)Nc1ccc(Oc2cccc3ccccc23)cc1` gave a melting point of 95 °C.

In turn, `CCCCS(=O)(=O)Nc1ccc([S+]([O-])c2cccc3ccccc23)cc1` (stereo not drawn) showed a melting point of 161 °C.

`CCCCS(=O)(=O)Nc1ccc(Oc2cccc3ccccc23)cc1` [Example 1, 1-N-(1-Butylsulfonyl)amino-4-(naphthyl-1-oxy)benzene] had a melting point of 108 to 109 °C. For the same compound, in series [1] (setting [5]), the “% Reduction in the infarct volume” value is recorded as 54%. Further, in series [1] (1.0 mg/kg, i.v. bolus injections directly, 2 and 4 hours after occlusion), the “% Reduction in the infarct volume” value is on record as “(84) %”. In addition, in series [2], the Ki was 590 nM. Also, the “ED−1° C., effective dose for 1° C. body temperature reduction” value in series [3] is recorded as 1.0 ^b) mg/kg. In addition, inhibition on rat CB1 receptor was half-maximal at 15 nM (IC50). For the same compound, in series [4] (setting [6]), the “% Reduction in the infarct volume” value was found to be 35%.

`CCCCCS(=O)(=O)N(c1ccc(Oc2cccc3c2CCNC3)cc1)S(=O)(=O)CCCCC` (as salt: hydrochloride) yielded a melting point of 162 °C.

In the case of `CCCC[S+]([O-])Nc1ccc(Oc2cccc3ccccc23)cc1` (stereo not drawn), the melting point is 138 to 139 °C.

As for `O=S(=O)(CCCCl)Nc1ccc(Oc2cccc3ccccc23)cc1` [Example 65], the melting point was 115 °C. For the same compound, the “% Reduction in the infarct volume” value in series [1] (setting [5]) came out at 53%. Further, in series [1] (0.3 mg/kg/h, i.v. continuous infusion directly up to 4 hours post-trauma), the “% Reduction in the infarct volume” value is given as “(65) %”. For the same compound, in series [2], the Ki came out at 250 nM. Further, in series [3], the “ED−1° C., effective dose for 1° C. body temperature reduction” value is 1.0 ^b) mg/kg. Further, the IC50 against rat CB1 receptor amounted to 13 nM. Also, in series [4] (0.01 mg/kg/h), the “% Reduction in the infarct volume” value was “(47) %”. For the same compound, the “% Reduction in the infarct volume” value in series [4] (setting [6]) was determined as 37%.

`CCCCS(=O)(=O)Nc1ccc(S(=O)(=O)c2cccc3ccccc23)cc1` had a melting point of 180 °C.

As to `O=S(=O)(Cc1ccccc1)Nc1ccc(Oc2cccc3ccccc23)nc1` [Example 33], the melting point is 161 to 162 °C. The “% Reduction in the infarct volume” value in series [1] (setting [5]) is reported as 42%. Moreover, in series [2], the Ki came out at 420 nM. In series [3], the “ED−1° C., effective dose for 1° C. body temperature reduction” value is recorded as 0.6 ^b) mg/kg. This compound yielded an IC50 against rat CB1 receptor of 10 nM. The “% Reduction in the infarct volume” value in series [4] (setting [5]) was 33%.

In turn, `CCCCC(=O)Nc1ccc(Oc2cccc3ccccc23)cc1` had a melting point of 80 °C.

Consider `CCCCCS(=O)(=O)Nc1ccc(Oc2cccc3c2CCN(CCCC)C3)cc1`, for which the melting point amounted to 187 °C.

On to `CCCCCS(=O)(=O)Nc1ccc(Oc2cccc3c2CC(CO)(CO)C3)cc1`, for which the melting point lay in the range of 135 to 137 °C.

`CCCCCS(=O)(=O)Oc1ccc(Oc2cccc3ccccc23)cc1` [Example 99]: in series [3], the “ED−1° C., effective dose for 1° C. body temperature reduction” value is listed as 0.6 ^b) mg/kg. Further, on rat CB1 receptor, the IC50 came out at 2.9 nM.

The compound `Nc1ccc(Oc2ccc(NS(=O)(=O)Cc3ccccc3)cc2)c2ccccc12` (as salt: hydrochloride) gave a melting point of 252 °C.

In the case of `O=S(=O)(NCc1ccccc1)c1ccc(Oc2cccc3ccccc23)cc1`, the melting point is 144 to 146 °C.

`CCCNS(=O)(=O)Nc1ccc(Oc2cccc3ccccc23)cc1` had a melting point of 113 to 115 °C.

`CCCCCS(=O)(=O)Oc1ccc(Oc2cccc3c2CCNC3)cc1` showed a melting point of 143 °C.
